Six compounds from the NIST ThermoML archive (doi:10.1021/acs.jced.6b00112) can be followed below.

± gives the expanded uncertainty stated by the source.

The conditions of series [1]: 298.15 K; 101.33 kPa; Liquid; Vibrating tube method.
Series [2] is described as follows: refractive index (Na D-line) (dimensionless). Conditions: 298.15 K; 101.33 kPa; Liquid; Standard Abbe refractometry.

For `CC(=O)O` [acetic acid], the mass density (in general, the mass of a sample divided by its volume) in series [1] was 1044.12 ± 10 kg/m3. The refractive index (in general, the speed of light in vacuum divided by its phase velocity in the sample) in series [2] worked out at 1.3714 ± 0.0008.
Take `CCCC(=O)O` [butanoic acid]: the mass density in series [1] came to 952.68 ± 10 kg/m3. The refractive index in series [2] amounted to 1.3977 ± 0.0008.
For `CCc1ccccc1` [ethylbenzene], in series [1], the mass density was 862.51 ± 10 kg/m3. For the same compound, the refractive index in series [2] is 1.493 ± 0.0008.
In the case of `O=CO` [formic acid], the mass density in series [1] was determined as 1219.5 ± 10 kg/m3. In addition, in series [2], the refractive index is given as 1.371 ± 0.0008.
With `CCC(=O)O` [propanoic acid], the mass density in series [1] was 998.04 ± 10 kg/m3. Also, the refractive index in series [2] came to 1.3807 ± 0.0008.
Turning to `O` [water], the refractive index in series [2] stood at 1.3324 ± 0.0008.
